# Test results: US20110201648A1, “POLY-HETEROARYL DERIVATIVES FOR THE TREATMENT OF CANCER” (INSTITUT CURIE, priority 2008, published 2011)
# Test system: ds17 (17 base-pair duplex-DNA)
# Assay: Fluorescence titration with ds17
# Assay type: binding
# Conditions: 0.25 μM compound, cacodylate buffer + 100 mM KCl, λex=340 nm
# Procedure: The quadruplex-over duplex-selectivity is evaluated through fluorescence titrations by comparison of experiments carried out with 22AG (see above) and with a short duplex-DNA: ds17, which is a 17 base-pair duplex-DNA that represents a biological sequence used in previous studies (28); the sequences of the two complementary strands are the following: [5′-CCAGTTCGTAGTAACCC-3′]/[5′-GGGTTACTACGAACTGG-3′]. Duplex-structure is prepared by heating the two corresponding complementary strands at 90° C. for 5 min in a 10 mM sodium cacodylate buffer pH 7.3, 100 mM KCl followed by a slow cooling over 6 hrs. Concentrations are determined by UV-Vis measurements (after thermal denaturation, 5 min at 85° C.) at 260 nm before use.
compound,measurement,value
"c1cc(-c2cnc(-c3cccc(-c4cnco4)n3)o2)nc(-c2cnc(-c3cccc(-c4cnco4)n3)o2)c1 [compound 3, 2,6-bis{2-[6-(oxazol-5-yl)pyridin-2-yl]oxazol-5-yl}pyridine]",fluorescence of compound upon addition of ds17,do not result in a progressive quench of the fluorescence
